From patent publication US7109246B1, “Pharmaceutical compositions comprising an amphoteric surfactant an alkoxylated cetyl alcohol and a polar drug” (Hewlett Healthcare Ltd, priority 1998, dated 2006)
Where two headings read alike, the source gives them in different places.

Experiments:
[1] = cited from earlier work
[2] = cited from earlier work; remark: listed apart in the source
[3] = radioimmunoassay after applying an aqueous solution to skin; cited from earlier work
[4] = Bioavailability and pharmacokinetics of sodium cromoglycate from the literature; type: in vivo, human; details: oral, maximum administered dose of 2800 mg in a 70 kg person
Description: Urinary levels over time are probably a better measure of bioavailability.
Thus the maximum administered topical daily dose is expected to be 800 mg.

[5] = system: antigen induced wheal and flare reaction in the skin; details: cited from earlier work

absorbed dose [4]: 28 mg
Structure (SMILES): O=C([O-])c1cc(=O)c2c(OCC(O)COc3cccc4oc(C(=O)[O-])cc(=O)c34)cccc2o1.[Na+].[Na+] [sodium cromoglycate, disodium 5,5′-[(2-hydroxytrimethylene)dioxy]bis-[4-oxo-4H-1-benzopyran-2-carboxylate]]
main adverse effects ([1]; clinical practice, generally transient): headache, dizziness, local irritation of the target organ and an unpleasant taste in the mouth
adverse effects ([1]; eye drops): burning and stinging
adverse effects ([1]; intra-nasal administration): epistaxis
adverse effects ([1]; oral administration): nausea, skin rash and joint pain
metabolism ([2]; in vivo): not metabolised
removal from the blood ([2]; in vivo): rapidly removed
bioavailability ([2]; oral, food allergy): 1%
sodium cromoglycate in the blood [3]: unable to detect
dependence of effect on pretreatment ([5]; 3 days pretreatment versus single dose immediately preceding skin prick testing): significant effect is observed only after pretreatment
effect on antigen induced wheal and flare reaction ([5]; topical, human subjects): inhibits
